The values below are quoted from earlier work in patent US20240156825A1, “USE OF SELECTIVE VEGFR2 AND FGFR1 INHIBITORS” (Fountain Therapeutics Inc., priority 2022, published 2024).

Read-outs that look alike come from different tables or passages of the source.

Series [1] has as its target VEGFR2 (Homo sapiens, UniProt P35968). The note with it: reported IC50 to VEGFR2, read-out: VEGFR2 IC50_μM, cited from earlier work.
Series [2] relates to any gene target. The note with it: next lowest IC50 value to any gene target, read-out: Min IC50_μM, cited from earlier work.
[3] abbreviates: Table 3, selective inhibitors of VEGFR2.

Chain of VEGFR2 (P35968 20-1356, species assumed): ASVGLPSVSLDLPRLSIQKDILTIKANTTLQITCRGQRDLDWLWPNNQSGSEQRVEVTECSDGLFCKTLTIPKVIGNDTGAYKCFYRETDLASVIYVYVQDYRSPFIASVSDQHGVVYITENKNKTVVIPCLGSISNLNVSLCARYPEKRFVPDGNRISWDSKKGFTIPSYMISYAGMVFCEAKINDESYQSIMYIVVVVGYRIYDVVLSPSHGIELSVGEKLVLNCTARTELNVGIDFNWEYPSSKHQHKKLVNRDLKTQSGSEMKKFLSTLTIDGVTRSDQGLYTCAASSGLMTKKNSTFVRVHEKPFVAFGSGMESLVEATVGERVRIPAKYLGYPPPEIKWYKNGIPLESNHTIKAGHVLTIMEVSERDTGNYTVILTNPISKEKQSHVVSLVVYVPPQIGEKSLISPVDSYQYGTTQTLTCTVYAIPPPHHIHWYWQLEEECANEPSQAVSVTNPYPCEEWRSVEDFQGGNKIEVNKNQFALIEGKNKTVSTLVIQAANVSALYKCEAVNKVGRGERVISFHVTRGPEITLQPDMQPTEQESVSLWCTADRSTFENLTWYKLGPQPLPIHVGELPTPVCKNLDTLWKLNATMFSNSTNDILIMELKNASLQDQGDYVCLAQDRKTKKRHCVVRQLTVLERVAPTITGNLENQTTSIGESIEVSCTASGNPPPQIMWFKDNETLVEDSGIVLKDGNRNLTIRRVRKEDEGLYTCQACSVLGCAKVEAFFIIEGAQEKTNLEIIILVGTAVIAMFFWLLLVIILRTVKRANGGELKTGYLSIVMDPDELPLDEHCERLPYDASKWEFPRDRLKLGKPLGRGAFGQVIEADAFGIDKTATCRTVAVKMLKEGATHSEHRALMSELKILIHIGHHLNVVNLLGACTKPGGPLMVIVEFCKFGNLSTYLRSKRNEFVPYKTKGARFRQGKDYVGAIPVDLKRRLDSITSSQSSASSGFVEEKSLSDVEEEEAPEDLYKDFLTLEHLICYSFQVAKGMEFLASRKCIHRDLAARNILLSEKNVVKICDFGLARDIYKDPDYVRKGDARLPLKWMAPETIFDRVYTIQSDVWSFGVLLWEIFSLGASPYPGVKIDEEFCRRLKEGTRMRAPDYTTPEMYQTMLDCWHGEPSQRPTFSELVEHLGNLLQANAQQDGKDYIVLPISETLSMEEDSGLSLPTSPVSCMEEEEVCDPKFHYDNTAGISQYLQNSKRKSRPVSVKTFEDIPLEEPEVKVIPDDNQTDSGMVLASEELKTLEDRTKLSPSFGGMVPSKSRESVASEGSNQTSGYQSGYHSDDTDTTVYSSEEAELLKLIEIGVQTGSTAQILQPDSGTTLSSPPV

For the compound `COc1cc2c(Nc3ccc(Cl)c(Cl)c3F)ncnc2cc1OC[C@H]1CN2CCOC[C@H]2CO1` [compound 10029284], the IC50 in series [1] (setting [3]) and in series [2] (Table 3) was 50 nM in each case.

Regarding `COc1cc2c(Nc3ccc(Cl)c(Cl)c3)ncnc2cc1OCc1csc(C2CCNCC2)n1` [compound 53630972], the IC50 in series [1] (setting [3]) and in series [2] (Table 3) was 50 nM in each case.

`COc1cc2nccc(Oc3ccc4c(C(=O)NC(C)(C)C)cccc4c3)c2cc1OC` [compound 24823091]: the IC50 is 1500 nM in series [1] and 3700 nM in series [2].

Regarding `COc1cc2ncnc(Nc3ccc(Br)cc3)c2cc1OCCCC(=O)NO` [compound 127027714], the IC50 in series [1] is 98 nM; in series [2], 545 nM.

`COc1cc2c(Nc3cc(Cl)c(Cl)c(Cl)c3)ncnc2cc1OCC1CN(C)CCO1` (centres unmarked) [compound 57802593]: the IC50 in series [1] (setting [3]) and in series [2] (Table 3) was 50 nM throughout.

Turning to `c1ccc2sc(-c3ccc(Nc4ncnc5[nH]ccc45)cc3)nc2c1` [compound 44564789], the IC50 in series [1] was 1200 nM; in series [2], 1300 nM.

On to `COc1cc2ncnc(Nc3ccccc3Cl)c2cc1OCCCC(=O)NO` [compound 127027019], for which the IC50 in series [1] was 857 nM; in series [2], 1260 nM.

Turning to `COc1cc2c(Nc3ccc(Br)c(Cl)c3)ncnc2cc1OCC1CN(C)CCO1` (centres unmarked) [compound 57802766], the IC50 in series [1] and in series [2] was 50 nM throughout.

With `COc1cc(C2=C(c3c[nH]c4ccccc34)CNC2=O)cc(OC)c1OC` [compound 24894117], the IC50 in series [1] was 31 nM; in series [2], 37 nM.

On to `COc1cc2c(Nc3ccc(Cl)c(Cl)c3)ncnc2cc1OCC1CN(CC(N)=O)CCO1` (centres unmarked) [compound 57802603], for which the IC50 in series [1] (setting [3]) and in series [2] (Table 3) was 50 nM each time.

As for `COc1cc2c(Nc3ccc(Br)cc3F)ncnc2cc1OCCCN1CCN(C)CC1` [compound 49860190], the IC50 in series [1] was 9 nM; in series [2] it was 30 nM.

Consider `COc1cc2c(Nc3cc(Cl)c(Br)cc3F)ncnc2cc1OC[C@@H]1CN2CCC[C@H]2CO1` [compound 66839071], for which the IC50 in series [1] (setting [3]) and in series [2] (Table 3) was 50 nM in each case.

Turning to `COc1cc2nccc(Oc3ccc4c(C(=O)NCC(F)(F)F)cccc4c3)c2cc1OC` [compound 24823250], the IC50 in series [1] was 3.8 nM; in series [2], 16 nM.

As for `CC(C)Oc1cc2c(Nc3ccc(Cl)c(Cl)c3)ncnc2cc1OCC1CNCCO1` (centres unmarked) [compound 57802576], the IC50 in series [1] (setting [3]) and in series [2] (Table 3) was 50 nM in each case.

`COc1cc2ncnc(Oc3ccc4c(C(=O)NC5CC5)cccc4c3)c2cc1OC` [compound 24823093]: the IC50 in series [1] is 2.88 nM; in series [2], 360 nM.

Consider `COc1cc2c(Nc3ccc(Cl)c(Cl)c3)ncnc2cc1OCCN1C(=O)c2ccccc2C1=O` [compound 57802754], for which the IC50 in series [1] and in series [2] was 50 nM each time.

Regarding `Cc1c2ccc(N(C)c3ccnc(Nc4cccc(S(N)(=O)=O)c4)n3)cc2nn1C` [compound 24949700], the IC50 in series [1] is 5.6 nM; in series [2], 1400 nM.

Take `COc1cc2c(Nc3ccc(Cl)c(Cl)c3)ncnc2cc1OCc1nc2c(s1)CNCC2` [compound 53630967]: the IC50 in series [1] (setting [3]) and in series [2] (Table 3) was 50 nM in each case.

For `COc1cc2nccc(Oc3ccc4c(C(=O)NC5CCCC5)cccc4c3)c2cc1OC` [compound 24822599], the IC50 was 9 nM in series [1] and 620 nM in series [2].

`COc1cc(C2=C(c3cn(COCC[Si](C)(C)C)c4ccccc34)CNC2=O)cc(OC)c1OC` [compound 24894886]: the IC50 in series [1] was 3100 nM; in series [2], 4500 nM.

Turning to `CCNC(=O)Nc1ccc(Oc2ncccc2-c2ccnc(NC)n2)c2ccccc12` [compound 46890315], the IC50 in series [1] is 48 nM; in series [2], 130 nM.

As for `COc1cc2c(Nc3ccc(Br)c(Cl)c3F)ncnc2cc1OC[C@@H]1CN2CCC[C@H]2CO1` [compound 57802905], the IC50 in series [1] (setting [3]) and in series [2] (Table 3) was 50 nM in each case.

In the case of `COc1cc2c(Nc3cccc(Cl)c3Cl)ncnc2cc1OCC1CN(C(C)=N)CCCO1` (centres unmarked) [compound 134151034], the IC50 in series [1] (setting [3]) and in series [2] (Table 3) was 50 nM each time.

For the compound `Cc1ccc(NC(=O)c2cc(C3CC3)[nH]n2)cc1Nc1nc2ccccc2n1-c1cc(N)ncn1` [compound 15949619], the IC50 in series [1] was 48 nM; in series [2], 50 nM.

For the compound `c1ccc(-c2cnn3cc(-c4ccc(OCCN5CCOCC5)cc4)cnc23)cc1` [compound 5329447], the IC50 is 9 nM in series [1] and 32 nM in series [2].

For `COc1cc2c(Nc3ccc(Cl)c(Cl)c3)ncnc2cc1OCC1CN(S(=O)(=O)CCCCl)CCO1` (centres unmarked) [compound 57802656], the IC50 in series [1] and in series [2] was 50 nM each time.

Take `COc1cc2c(Nc3ccc(C)c(Cl)c3Cl)ncnc2cc1OCC1CN(C)CCO1` (centres unmarked) [compound 57802779]: the IC50 in series [1] and in series [2] was 50 nM in each case.

On to `CN1CCC(Nc2ccc3c(c2)/C(=C/c2cc4c([nH]2)CCN(C(=O)N2CCOCC2)C4)C(=O)N3)CC1` [compound 71714235], for which the IC50 in series [1] (setting [3]) and in series [2] (Table 3) was 3 nM throughout.

Regarding `COc1cc2c(Nc3ccc(Cl)c(Cl)c3)ncnc2cc1OCC1CN(CCCCCC#N)CCO1` (centres unmarked) [compound 57802611], the IC50 in series [1] (setting [3]) and in series [2] (Table 3) was 50 nM throughout.

Take `C[C@@H](Nc1ncnc2[nH]c(-c3ccc(CNCCCCCC(=O)NO)cc3)cc12)c1ccccc1` [compound 24900643]: the IC50 in series [1] and in series [2] was 100 nM throughout.

Regarding `Clc1cccc(Nc2cncc(-c3cncc(NCCCn4cccn4)c3)n2)c1` [compound 5330391], the values for the IC50 in series [1] and in series [2] were 93.3 nM and 326 nM, respectively.

Turning to `COc1cc2c(Nc3ccc(Br)c(Cl)c3F)ncnc2cc1OCC1CN(C)C(C)(C)CO1` (centres unmarked) [compound 57802747], the IC50 in series [1] and in series [2] was 50 nM throughout.

Take `COc1cc2c(Nc3ccc(Br)c(F)c3F)ncnc2cc1OCC1CN(C)CCO1` (centres unmarked) [compound 57802560]: the IC50 in series [1] (setting [3]) and in series [2] (Table 3) was 50 nM each time.

`COc1cc2c(Nc3ccc(F)c(Cl)c3F)ncnc2cc1OC[C@@H]1CN2CCOC[C@H]2CO1` [compound 66838567]: the IC50 in series [1] (setting [3]) and in series [2] (Table 3) was 50 nM in each case.

For the compound `C[C@@H](Nc1ncnc2[nH]c(-c3ccc(CNCc4ccc(C(=O)NO)cc4)cc3)cc12)c1ccccc1` [compound 59756709], the IC50 in series [1] (setting [3]) and in series [2] (Table 3) was 100 nM in each case.

`Clc1cccc(Nc2cncc(-c3cncc(NCCCn4cncn4)c3)n2)c1` [compound 5330392]: the IC50 in series [1] is 67 nM; in series [2], 153 nM.

With `O=C(CCCCCCCNCc1cc(Oc2ccc(NC(=O)Nc3ccc(Cl)c(C(F)(F)F)c3)cc2)ccn1)NO` [compound 25072218], the IC50 in series [1] and in series [2] was 100 nM throughout.

For `COc1cc2c(Oc3ccc(Nc4ccc(C(C)(C)C)cc4)cc3)ccnc2cc1OCCNCCO` [compound 9850161], the IC50 in series [1] (setting [3]) and in series [2] (Table 3) was 69 nM throughout.

With `COc1ccc(NC(=O)Nc2ccc3c(c2)NC(=O)/C3=C\c2[nH]cc(C(=O)O)c2C)cc1` [compound 46898039], the IC50 in series [1] (setting [3]) and in series [2] (Table 3) was 0.5 nM in each case.

Take `COc1cc2c(Nc3ccc(Cl)cc3F)ncnc2cc1OCCCN1CCOCC1` [compound 5329020]: the IC50 in series [1] was 9 nM; in series [2], 50 nM.
